Test results from patent US12679878B2, “CRF2 receptor agonists and their use in therapy” (SANOFI, priority 2020, dated 2026).
Like-named read-outs stand apart in the source and are kept apart here. Starred links: 1 amine or outer side, 2 acyl side, 3 side chain; linkers in the order of their positions; H or OH if unused. Non-standard residues stand in square brackets, D forms with d. Residues, ends and D or L forms follow the SMILES beside them. Groups on a side chain read outwards from the residue. *: point of attachment. C18 diacid = O=C(O)CCCCCCCCCCCCCCCCC(=O)*; γGlu = O=C(O)[C@H](CCC(=O)[*:2])N[*:1]; AEEA = NCCOCCOCC(=O)O

Tests used:
[1] = Solubility in buffer systems by UPLC-UV (Example 13); type: physicochemical
Outline: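 The supernatant was diluted 1:10 and quantified by UPLC-UV peak area against a reference standard curve, correcting for sequence-based extinction coefficients.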

CRF1R receptor = target: T1, CRF1R receptor (Homo sapiens, UniProt P34998); test: cAMP activity at anti-target CRF1R, CRF1R-overexpression CHO cell line (Example 9); type: cell-based; conditions: CRF1R-overexpression CHO cell line
T1 construct: host or cells: CHO-K1 clone 2
T1 sequence (P34998 24-415): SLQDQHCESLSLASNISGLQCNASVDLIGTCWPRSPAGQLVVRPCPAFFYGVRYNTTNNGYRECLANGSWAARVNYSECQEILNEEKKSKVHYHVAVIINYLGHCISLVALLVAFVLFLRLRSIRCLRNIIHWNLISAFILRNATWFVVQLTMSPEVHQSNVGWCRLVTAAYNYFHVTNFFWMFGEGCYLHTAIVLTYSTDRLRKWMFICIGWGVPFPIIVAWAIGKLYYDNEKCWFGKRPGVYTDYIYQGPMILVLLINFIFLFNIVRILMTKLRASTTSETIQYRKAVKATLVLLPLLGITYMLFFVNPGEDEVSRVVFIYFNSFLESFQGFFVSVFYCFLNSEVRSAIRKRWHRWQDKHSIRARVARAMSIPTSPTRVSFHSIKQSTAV
Outline: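 cAMP accumulation was read by HTRF after 30 min at room temperature of compound treatment. Cells were cryopreserved CHO cells overexpressing CRF1R, plated at 2000/well in IBMX (2 mM)-containing HBSS/HEPES buffer with 0 or 0.1% HSA. Activity was normalized to 1000 nM UCN2 as 100%.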

[2] = Chemical stability, purity loss by UPLC-UV after 28 days at 40° C. vs 5° C., pH 4.5 acetate buffer (Example 12); type: physicochemical; conditions: 28 days 40° C. vs 5° C.; pH 4.5, 20 mM acetate buffer; 300 μM
Outline: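 300 μM compound (purity-corrected) in 20 mM acetate buffer, pH 4.5, stored 28 days at 5 and 40° C. Purity by UPLC-UV as compound peak area over total peak area. Value is the purity difference between 5° C. and 40° C. samples, relative to the 5° C. purity, in percent.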

human CRF2α receptor = target: T2, human CRF2α receptor (Homo sapiens, UniProt Q13324); test: cAMP agonism at human CRF2 α receptor in TeloHEAC cells (Example 7); type: cell-based; conditions: cAMP HTRF, TeloHEAC cells stably expressing human CRF2 α
T2 construct: expressed in transfected cells; host or cells: TeloHEAC
T2 sequence (Q13324 1-411): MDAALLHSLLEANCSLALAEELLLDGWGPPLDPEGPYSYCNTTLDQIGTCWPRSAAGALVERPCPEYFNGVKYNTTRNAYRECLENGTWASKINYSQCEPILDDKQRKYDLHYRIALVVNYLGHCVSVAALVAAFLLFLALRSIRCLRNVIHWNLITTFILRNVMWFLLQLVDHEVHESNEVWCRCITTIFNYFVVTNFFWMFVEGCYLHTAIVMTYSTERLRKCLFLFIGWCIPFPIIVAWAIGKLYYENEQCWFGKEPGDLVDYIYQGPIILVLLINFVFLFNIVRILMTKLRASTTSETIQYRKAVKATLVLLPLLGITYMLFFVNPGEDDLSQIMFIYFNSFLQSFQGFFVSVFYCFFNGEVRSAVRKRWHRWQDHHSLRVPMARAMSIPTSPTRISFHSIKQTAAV
Outline: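 Steps: thaw and wash cells; suspend in 1×HBSS, 20 mM HEPES, 0 or 0.1% HSA, 2 mM IBMX; add compound, 30 min RT; lyse with HTRF reagents, 1 h; read 665/620 nm. EC50 calculated, E% versus 1000 nM UCN2.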

rat CRF2R α receptor = test: cAMP agonism at rat CRF2R α receptor in A7R5 rat aortic smooth muscle cells (Example 8); type: cell-based; conditions: cAMP HTRF, A7R5 rat aortic smooth muscle cell line, 0% HSA
Outline: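 Thawed cryopreserved A7R5 cells in HBSS/20 mM HEPES (0 or 0.1% HSA) with 2 mM IBMX, 2000 cells/well, were exposed to compound for 30 min at room temperature. cAMP was read by HTRF (665/620 nm ratio) after 1 h with lysis reagents. Activity was normalised to 1000 nM urocortin 2 as 100%, and EC50 was taken as the concentration giving 50% of maximal activation.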

- solubility at 1 h ([1]; pH 4.5, Solubility in Buffer A [mg/ml]): > 9100 µg/mL
- solubility at 1 h ([1]; pH 4.5, Solubility in Buffer B [mg/ml]): > 8600 µg/mL
- solubility at 1 h ([1]; pH 7.4, Solubility in Buffer C [mg/ml]): > 8800 µg/mL
- EC50 (CRF1R receptor; 0% HSA): > 1000 nM
- Emax (CRF1R receptor; read-out: Emax (%)): 37.6%
- Relative purity loss [%] [2]: 3.05%
- EC50 (human CRF2α receptor; 0% HSA, read-out: EC50 [nM], 0% HSA): 0.03 nM
- EC50 (human CRF2α receptor; 0.1% HSA, read-out: EC50 [nM], 0.1% HSA): 1.31 nM
- EC50 (rat CRF2R α receptor): 0.1 nM
Structure (SMILES): CC[C@H](C)[C@H](N)C(=O)N[C@H](C(=O)N[C@@H](CC(C)C)C(=O)N[C@@H](CO)C(=O)N[C@@H](CC(C)C)C(=O)N[C@@H](CC(=O)O)C(=O)N[C@@H](C(=O)N1CCC[C@H]1C(=O)N[C@H](C(=O)N[C@@H](CCCCN)C(=O)N[C@@H](CC(C)C)C(=O)N[C@@H](CCCCNC(=O)COCCOCCNC(=O)COCCOCCNC(=O)CC[C@H](NC(=O)CCCCCCCCCCCCCCCCC(=O)O)C(=O)O)C(=O)N[C@@H](CCC(N)=O)C(=O)N[C@H](C(=O)N[C@@H](CC(C)C)C(=O)N[C@@H](CC(C)C)C(=O)N[C@@H](CCCCN)C(=O)N[C@@H](CCC(N)=O)C(=O)N[C@@H](CCC(=O)O)C(=O)N[C@@H](CCCNC(=N)N)C(=O)N[C@@H](CCC(N)=O)C(=O)N[C@@H](CCCCN)C(=O)N[C@@H](CCCCN)C(=O)N[C@@H](CCC(N)=O)C(=O)N[C@@H](CCCNC(=N)N)C(=O)N[C@@H](CCC(N)=O)C(=O)N[C@@H](CCC(N)=O)C(=O)N[C@@H](C)C(=O)N[C@@H](CCC(=O)O)C(=O)N[C@@H](CCCCN)C(=O)N[C@@H](CC(N)=O)C(=O)N[C@@H](CCCCN)C(=O)N[C@@H](CCC(N)=O)C(=O)N[C@H](C(=O)N[C@@H](CC(C)C)C(=O)N[C@@H](C)C(=O)N[C@@H](CCC(N)=O)C(=O)N[C@H](C(N)=O)C(C)C)[C@@H](C)CC)[C@@H](C)CC)[C@@H](C)CC)C(C)C)C(C)C [compound 139] (H-IVLSLD[dV]PIKLK([AEEA-AEEA-γGlu-C18 diacid])QILLKQERQKKQRQQAEKNKQILAQV-NH2; N-terminus assumed)
